Source: patent publication US7405041B2, “Methods for regulating transcription by targeting quadruplex DNA” (Arizona Board of Regents on behalf of the University of …, priority 2002, dated 2008)

Experiments:
[1] = tested on: HER-2/neu quadruplex; test: DNA polymerase arrest assay, HER-2/neu promoter template; type: biochemical; settings: temperature gradient of 37° C. to 57° C., in the presence of potassium
Excerpt: (§1) A polymerase arrest assay is useful for determining whether transcription is modulated by a candidate molecule and/or a nucleic acid binding protein. Such an assay includes a template nucleic acid, which often comprises a quadruplex forming sequence, and a primer nucleic acid which hybridizes to the template nucleic acid […] of the quadruplex-forming sequence. The primer is extended by a polymerase (e.g., Taq polymerase), which advances from the primer along the template nucleic acid. In this assay, a quadruplex structure can block or arrest the advance of the enzyme, leading to shorter transcription fragments. Also, the arrest assay may be conducted at a variety of temperatures, including 45° C. and 60° C., and at a variety of ion concentrations. An example of the Taq polymerase stop assay is described in Han, et al., Nucl. Acids Res. 27:537-542 (1999), which is a modification of that used by Weitzmann, et al., J. Biol. Chem. 271, 20958-20964 (1996). Briefly, a reaction mixture of template DNA (50 nM), Tris∘HCl (50 mM), MgCl2 (10 mM), DTT (0.5 mM), EDTA (0.1 mM), BSA (60 ng), and 5′-end-labeled quadruplex nucleic acid (˜18 nM) is heated to 90° C. for 5 minutes and allowed to cool to ambient temperature over 30 minutes. Taq Polymerase (1 μl) is added to the reaction mixture, and the reaction is maintained at a constant temperature for 30 minutes. […]

[2] = tested on: c-MYB nucleic acid (heptad:tetrad quadruplex); test: DNA polymerase arrest assay, c-MYB nucleic acid; type: biochemical; settings: temperature gradient of 37° C. to 57° C., in the presence of potassium
Excerpt: as §1

[3] = tested on: c-MYB RNA; test: Real-time reverse-transcription PCR gene expression in Colo-205 cells, c-MYB; type: cell-based; settings: minimally cytotoxic doses
Procedure: (§2) Cells were treated with telomestatin (interacts with the putative tetrad:heptad in HER-2/neu) and TmPyP4 (negative control) at various concentrations and times. Cytotoxicity studies using MTS were performed to determine a non-toxic or minimally toxic dose and duration of treatment. Cells were harvested after treatment for RNA extraction, and “target” versus “non-target” gene expression is measured by real-time reverse-transcription PCR according to established methods.
(§3) Target genes included two known tetrad/heptad (T:H) forming genes, HER-2/neu and c-MYB. c-MYC was analyzed as a positive control, having a known chair quadruplex forming regulatory unit in the nuclease hypersensitive element of the P1 promoter. […]
(§4) A panel of cell lines including SK-BR-3 breast cancer, BT-474 breast cancer, MCF-7 breast cancer, Colo-205 colon cancer, and HeLa cervical cancer were treated with the quadruplex interactive compound TmPyP4 to assess for the cytotoxicity of this agent against a panel of cell lines with various levels of expression of HER-2/neu, c-MYB, and c-MYC. At minimally cytotoxic doses, Colo-205 cells were analyzed for gene expression after treatment with TmPyP4 and using real-time reverse-transcription PCR.

[4] = tested on: c-MYC RNA; test: Real-time reverse-transcription PCR gene expression in Colo-205 cells, c-MYC; type: cell-based; settings: minimally cytotoxic doses
Procedure: as §2, §3, §4

[5] = tested on: HER-2/neu RNA; test: Real-time reverse-transcription PCR gene expression in Colo-205 cells, HER-2/neu; type: cell-based; settings: minimally cytotoxic doses
Procedure: as §2, §3, §4

[6] = tested on: GAPDH RNA; test: Real-time reverse-transcription PCR gene expression in Colo-205 cells, GAPDH; type: cell-based; settings: minimally cytotoxic doses
Procedure: as §2, §3, §4

[7] = tested on: B-actin RNA; test: Real-time reverse-transcription PCR gene expression in Colo-205 cells, B-actin; type: cell-based; settings: minimally cytotoxic doses
Procedure: as §2, §3, §4

[8] = tested on: quadruplex DNA; settings: stated as reason for use as negative control; cited from earlier work

Structure (SMILES)	interaction with and stabilization of the HER-2/neu quadruplex [1]	interaction with and stabilization of the c-MYB nucleic acid [2]	c-MYB RNA level [3]	c-MYC RNA level [4]	HER-2/neu RNA level [5]	GAPDH RNA level [6]	B-actin RNA level [7]	interaction with quadruplex DNA [8]
C[n+]1ccc(-c2c3nc(c(-c4cc[n+](C)cc4)c4ccc([nH]4)c(-c4cc[n+](C)cc4)c4ccc([nH]4)c(-c4cc[n+](C)cc4)c4nc2C=C4)C=C3)cc1 [TMPyP4]	no apparent change in the stability of the HER-2/neu quadruplex	interacted with and stabilized the c-MYB nucleic acid	reduction	reduction	not a reduction	not a reduction	not a reduction	–
C[n+]1ccccc1-c1c2nc(c(-c3cccc[n+]3C)c3ccc([nH]3)c(-c3cccc[n+]3C)c3ccc([nH]3)c(-c3cccc[n+]3C)c3nc1C=C3)C=C2 [TmPyP2]	–	–	–	–	–	–	–	interacts only weakly with quadruplex DNA
